Experimental data reported in patent US10150743B2, “Carboxylic acid compounds” (priority 2012, dated 2018).

Experiments:
Assay type in all cases: cell-based
human TLR8 = human TLR8 (Homo sapiens (Human), UniProt Q9NR97); test: Human TLR8 assay (TLR8/NF-kB/SEAPorter HEK 293 Cell Line); conditions: SEAP induction, overnight incubation at 37° C., 0.1% DMSO; read-out: TLR8 pEC50 (converted)
Description: TLR8/NF-kB/SEAPorter™ HEK 293 Cell Line (Imgenex Corporation) is a stably co-transfected cell line which expresses full-length human TLR8 and the secreted alkaline phosphatase (SEAP) reporter gene under the transcriptional control of an NF-κB response element. TLR8 expression in this cell line has been tested by flow cytometry. Transfectants with stable expression were selected using the antibiotic blasticidin and geneticin. TLR signaling leads to the translocation of NF-κB and activation of the promoter results in expression of the SEAP gene. TLR8-specific activation was assessed by determining the level of SEAP produced following overnight incubation of the cells at 37° C. with the standard compound in the presence of 0.1% (v/v) dimethylsulfoxide (DMSO). Concentration dependent induction of SEAP production by compounds was expressed as the concentration of compound which produced half of the maximal level of SEAP induction for that compound (EC50).

hERG ion channel = hERG ion channel (Homo sapiens (Human), UniProt Q12809); test: hERG Analysis - Method 1 (IONWORKS HT, CHO-hERG cells); conditions: ~21° C.
Method: The hERG-expressing Chinese hamster ovary K1 (CHO) cells described by (Persson, Carlsson, Duker, & Jacobson, 2005) were grown to semi-confluence at 37° C. in a humidified environment (5% CO2) in F-12 Ham medium containing L-glutamine, 10% foetal calf serum (FCS) and 0.6 mg/mL hygromycin (all available from Sigma-Aldrich). Prior to use, the monolayer was washed using a pre-warmed (37° C.) 3 mL aliquot of Versene 1:5,000 (Invitrogen) After aspiration of this solution the flask was incubated at 37° C. in an incubator with a further 2 mL of Versene 1:5,000 for a period of 6 minutes. Cells were then detached from the bottom of the flask by gentle tapping and 10 mL of Dulbecco's Phosphate-Buffered Saline containing calcium (0.9 mM) and magnesium (0.5 mM) (PBS; Invitrogen) was then added to the flask and aspirated into a 15 mL centrifuge tube prior to centrifugation (50 g, for 4 mins). The resulting supernatant was discarded and the pellet gently re-suspended in 3 mL of PBS. A 0.5 mL aliquot of cell suspension was removed and the number of viable cells (based on trypan blue exclusion) was determined in an automated reader (Cedex; Innovatis) so that the cell re-suspension volume can be adjusted with PBS to give the desired final cell concentration. It is the cell concentration at this point in the assay that is quoted when referring to this parameter. CHO-Kv1.5 cells, which were used to adjust the voltage offset on IONWORKS™ HT, were maintained and prepared for use in the same way.
The principles and operation of this device have been described by (Schroeder, Neagle, Trezise, & Worley, 2003). Briefly, the technology is based on a 384-well plate (PATCHPLATE™) in which a recording was attempted in each well by using suction to position and hold a cell on a small hole separating two isolated fluid chambers. Once sealing had taken place, the solution on the underside of the PATCHPLATE™ was changed to one containing amphotericin B. This permeablises the patch of cell membrane covering the hole in each well and, in effect, allowed a perforated, whole-cell patch clamp recording to be made.
A β-test IONWORKS™ HT from Essen Instrument was used. […] (˜21° C.), as follows. The reservoir in the “Buffer” position was loaded with 4 mL of PBS and that in the “Cells” position with the CHO-hERG cell suspension described above. A 96-well plate (V-bottom, Greiner Bio-one) containing the compounds to be tested (at 3-fold above their final test concentration) was placed in the “Plate 1” position and a PATCHPLATE™ was clamped into the PATCHPLATE™ station. […]

human TLR7 = human TLR7 (Homo sapiens (Human), UniProt Q9NYK1); test: Human TLR7 assay (SEAP reporter in HEK293); conditions: SEAP induction, overnight incubation at 37° C., 0.1% DMSO; read-out: TLR7 (pEC50) (converted)
Description: Recombinant human TLR7 was stably expressed in a HEK293 cell line already stably expressing the pNiFty2-SEAP reporter plasmid; integration of the reporter gene was maintained by selection with the antibiotic zeocin. The most common variant sequence of human TLR7 (represented by the EMBL sequence AF240467) was cloned into the mammalian cell expression vector pUNO and transfected into this reporter cell-line. Transfectants with stable expression were selected using the antibiotic blasticidin. In this reporter cell-line, expression of secreted alkaline phosphatase (SEAP) is controlled by an NFkB/ELAM-1 composite promoter comprising five NFkB sites combined with the proximal ELAM-1 promoter. TLR signaling leads to the translocation of NFkB and activation of the promoter results in expression of the SEAP gene. TLR7-specific activation was assessed by determining the level of SEAP produced following overnight incubation of the cells at 37° C. with the standard compound in the presence of 0.1% (v/v) dimethylsulfoxide (DMSO). Concentration dependent induction of SEAP production by compounds was expressed as the concentration of compound which produced half of the maximal level of SEAP induction for that compound (EC50).

Chain of human TLR7 (Q9NYK1 27-1049): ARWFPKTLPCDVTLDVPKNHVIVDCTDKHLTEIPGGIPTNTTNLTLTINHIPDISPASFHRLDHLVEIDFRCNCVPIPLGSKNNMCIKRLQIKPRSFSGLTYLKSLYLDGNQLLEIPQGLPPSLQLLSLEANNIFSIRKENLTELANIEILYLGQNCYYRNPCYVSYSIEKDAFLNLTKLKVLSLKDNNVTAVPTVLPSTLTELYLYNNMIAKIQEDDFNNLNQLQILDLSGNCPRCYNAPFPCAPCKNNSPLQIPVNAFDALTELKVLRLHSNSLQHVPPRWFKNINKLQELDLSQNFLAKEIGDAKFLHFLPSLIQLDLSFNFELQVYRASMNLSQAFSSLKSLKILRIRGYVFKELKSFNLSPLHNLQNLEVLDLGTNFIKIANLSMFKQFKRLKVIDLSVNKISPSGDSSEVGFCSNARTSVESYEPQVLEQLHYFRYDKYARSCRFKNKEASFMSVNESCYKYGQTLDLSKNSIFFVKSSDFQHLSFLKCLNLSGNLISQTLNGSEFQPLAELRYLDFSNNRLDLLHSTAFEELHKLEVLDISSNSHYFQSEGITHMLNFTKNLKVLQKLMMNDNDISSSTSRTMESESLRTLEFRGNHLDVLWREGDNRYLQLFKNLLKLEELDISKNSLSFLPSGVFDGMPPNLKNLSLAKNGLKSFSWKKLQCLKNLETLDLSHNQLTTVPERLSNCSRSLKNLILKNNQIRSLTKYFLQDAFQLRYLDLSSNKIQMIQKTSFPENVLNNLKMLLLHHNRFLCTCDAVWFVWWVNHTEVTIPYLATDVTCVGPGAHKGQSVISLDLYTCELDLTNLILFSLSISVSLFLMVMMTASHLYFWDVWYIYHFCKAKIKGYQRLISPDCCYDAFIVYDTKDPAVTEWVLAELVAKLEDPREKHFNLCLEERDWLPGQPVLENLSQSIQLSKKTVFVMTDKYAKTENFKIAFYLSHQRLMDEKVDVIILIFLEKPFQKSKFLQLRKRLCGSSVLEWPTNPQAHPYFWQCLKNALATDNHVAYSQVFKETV
Chain of hERG ion channel (Q12809 whole entry): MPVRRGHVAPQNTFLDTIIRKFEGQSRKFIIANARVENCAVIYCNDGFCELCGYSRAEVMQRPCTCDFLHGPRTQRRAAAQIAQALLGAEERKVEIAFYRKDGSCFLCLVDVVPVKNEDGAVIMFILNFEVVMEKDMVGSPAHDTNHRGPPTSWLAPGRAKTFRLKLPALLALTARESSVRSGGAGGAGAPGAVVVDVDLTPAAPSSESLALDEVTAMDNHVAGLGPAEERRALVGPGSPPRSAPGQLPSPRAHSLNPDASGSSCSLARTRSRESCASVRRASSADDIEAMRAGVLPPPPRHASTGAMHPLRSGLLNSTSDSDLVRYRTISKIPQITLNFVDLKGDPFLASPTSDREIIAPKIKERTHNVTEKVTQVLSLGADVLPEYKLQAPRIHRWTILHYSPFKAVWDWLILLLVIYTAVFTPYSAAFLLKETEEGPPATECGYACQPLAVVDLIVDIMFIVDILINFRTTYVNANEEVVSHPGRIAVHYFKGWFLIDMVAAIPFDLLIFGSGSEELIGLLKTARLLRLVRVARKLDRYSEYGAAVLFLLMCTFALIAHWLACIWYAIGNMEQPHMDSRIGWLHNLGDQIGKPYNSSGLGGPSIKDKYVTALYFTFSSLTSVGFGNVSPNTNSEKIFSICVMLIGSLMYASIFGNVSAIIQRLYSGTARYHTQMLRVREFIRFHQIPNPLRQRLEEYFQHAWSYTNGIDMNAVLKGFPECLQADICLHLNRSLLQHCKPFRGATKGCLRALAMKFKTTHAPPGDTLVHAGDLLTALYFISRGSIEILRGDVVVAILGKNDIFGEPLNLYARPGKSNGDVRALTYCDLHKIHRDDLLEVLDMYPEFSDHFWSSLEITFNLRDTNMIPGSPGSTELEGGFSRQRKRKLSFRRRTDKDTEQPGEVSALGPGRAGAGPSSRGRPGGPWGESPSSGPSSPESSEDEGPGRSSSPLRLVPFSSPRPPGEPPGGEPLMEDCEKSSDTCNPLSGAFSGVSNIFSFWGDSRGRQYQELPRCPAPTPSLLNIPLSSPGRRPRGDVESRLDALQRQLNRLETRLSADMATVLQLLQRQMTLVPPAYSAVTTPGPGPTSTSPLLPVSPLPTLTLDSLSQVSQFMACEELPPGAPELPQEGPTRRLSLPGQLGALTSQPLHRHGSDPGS
Chain of human TLR8 (Q9NR97 27-1041): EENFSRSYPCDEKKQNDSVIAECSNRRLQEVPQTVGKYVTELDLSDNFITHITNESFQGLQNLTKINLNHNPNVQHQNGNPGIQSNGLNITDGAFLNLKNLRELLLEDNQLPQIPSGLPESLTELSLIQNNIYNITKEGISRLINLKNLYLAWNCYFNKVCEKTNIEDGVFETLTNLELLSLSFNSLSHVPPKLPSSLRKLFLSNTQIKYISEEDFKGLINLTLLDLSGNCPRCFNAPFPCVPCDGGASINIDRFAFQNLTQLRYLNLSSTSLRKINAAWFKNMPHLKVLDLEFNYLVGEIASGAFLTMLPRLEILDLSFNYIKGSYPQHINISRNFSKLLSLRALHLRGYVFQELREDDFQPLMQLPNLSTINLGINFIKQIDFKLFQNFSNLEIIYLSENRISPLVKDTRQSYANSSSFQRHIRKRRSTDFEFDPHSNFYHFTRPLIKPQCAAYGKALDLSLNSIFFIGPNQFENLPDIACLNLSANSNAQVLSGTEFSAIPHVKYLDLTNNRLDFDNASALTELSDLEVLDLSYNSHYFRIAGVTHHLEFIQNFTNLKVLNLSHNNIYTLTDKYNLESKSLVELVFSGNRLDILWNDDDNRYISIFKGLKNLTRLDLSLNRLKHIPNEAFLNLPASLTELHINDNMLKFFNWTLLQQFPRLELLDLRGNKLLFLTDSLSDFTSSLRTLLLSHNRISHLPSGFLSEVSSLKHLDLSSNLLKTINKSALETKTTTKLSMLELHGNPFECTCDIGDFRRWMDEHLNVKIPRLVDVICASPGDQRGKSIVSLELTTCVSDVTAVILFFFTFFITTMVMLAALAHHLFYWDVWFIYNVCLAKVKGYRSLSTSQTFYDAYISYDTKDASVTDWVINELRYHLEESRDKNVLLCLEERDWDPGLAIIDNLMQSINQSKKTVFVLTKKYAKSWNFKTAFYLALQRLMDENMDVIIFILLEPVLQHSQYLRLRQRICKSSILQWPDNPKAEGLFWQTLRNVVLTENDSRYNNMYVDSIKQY

Structure (SMILES): CCC[C@@H](CCO)Nc1nc(N)nc(C)c1Cc1ccc(CN(CC(=O)O)CC(F)F)cc1OC [Example 3, (S)-2-((4-((2-amino-4-(1-hydroxyhexan-3-ylamino)-6-methylpyrimidin-5-yl)methyl)-3-methoxybenzyl)(2,2-difluoroethyl)amino)acetic acid]
- EC50 (human TLR8): > 10 µM
- IC50 (hERG ion channel): > 33 µM
- EC50 (human TLR7): 0.0794 µM
